Experimental data reported in patent US5420289A, “Substituted indole-, indene-, pyranoindole- and tetrahydrocarbazole-alkanoic acid derivatives as inhibitors of PLA2 and lipoxygenase” (American Home Products Corporation, priority 1993, dated 1995).
Structures can show the parent of a compound that is named as a salt.

Assays:
[1] = biological target: T1, human synovial fluid PLA2 (Homo sapiens, UniProt P14555); assay: in vitro isolated phospholipase A2 assay, human synovial fluid PLA2 (Example 74); type: biochemical; set-up: inhibition / % Inhibition, HSF (human synovial fluid): dose or concentration left out as unconfirmed; settings: for inhibition: read-out: % Inhibition, HSF (human synovial fluid); for IC50: Table III, read-out: IC50 HSF (human synovial fluid)
T1 sequence (P14555 21-144): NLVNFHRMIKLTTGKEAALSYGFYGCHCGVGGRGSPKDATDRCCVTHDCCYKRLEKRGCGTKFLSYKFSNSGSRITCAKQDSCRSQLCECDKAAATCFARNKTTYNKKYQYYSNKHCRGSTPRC
Experimental: The compounds of the invention are tested in an in vitro isolated phospholipase A2 assay to determine the ability of the test compounds to inhibit the release of arachidonic acid from an arachidonic acid-containing substrate by the action of phospholipase A2 enzyme from human and non-human sources.
(§1) This assay is carried out as follows:
Into a 15 mL polypropylene tube are added the following:
^6 Two human PLA2 enzymes are used:
b) Purified human synovial fluid.
Incubate the 100mL reaction mixture for 10 minutes at 37° C. in a shaking water bath. The reaction is terminated by the addition of 2 mL tetrahydrofuran, followed by vortexlag. NH2 columns (100 mg/mL--Analytichem International) are conditioned with 0.5 mL tetrahydrofuran followed by 0.5 mL tetrahydrofuran/water (2 mL:0.1 mL, v/v).
The sample is loaded onto the columns and slowly drawn through them. The hydrolyzed arachidonic acid retained in the columns is eluted therefrom with 1 mL tetrahydrofuran/glacial acetic acid (2%). The arachidonic acid is transferred to scintillation vials and quantitated by b-counting analysis. A "total counts" sample is prepared by pipetting […] ^3 H-arachidonate E. coli directly into a scintillation vial to which is added 1 mL tetrahydrofuran. 10 mL aquasol (scintillation cocktail) is added to all samples. [formula]

[2] = test system: 5-lipoxygenase in human whole blood; assay: inhibition of 5-lipoxygenase in human whole blood (Example 79); type: cell-based; settings: for IC50: human whole blood, read-out: IC50 (inhibition of LTB4)
Experimental: The assay of this Example measures the ability of the compounds tested to inhibit 5-lipoxygenase in human whole blood.
as §1
Blood is obtained in 50-100 ml quantities from male donors. White blood cell counts and differentials are made. Two ml of blood are placed in a 15 ml polypropylene test tube. Compounds are solubilized in dimethylsulfoxide and diluted 1:10 in 10% bovine serum albumin in phosphate buffered saline, pH 7.4 resulting in a final dimethylsulfoxide concentration of 0.1% in the blood. Then, compounds are added to the blood in a shaking water bath at 37° C. for 10 minutes prior to the addition of […] calcium ionophore (A23187; Sigma). After ionophore administration, whole blood samples are mixed and incubated for 20 minutes at 37° C. in a shaking water bath. Incubation is terminated by placing samples in an ice bath and immediately adding ethylene glycol-bis-(b-aminoethyl ether)-N,N,N',N'-tetraacetic acid (10 mM). Samples are mixed and centrifuged at 1200 × g for 15 minutes at 4° C. Preparation of samples for evaluation by RIA or ELISA is carried out by the following protocol. Plasma is removed from sample tubes, placed in 15 ml polypropylene test tubes containing 8 ml methanol, and then vortexed to precipitate protein. Samples are stored at -70° C. overnight. The next day, samples are centrifuged at 200 × g for 15 minutes at 4° C. to pellet the precipitate. Samples are dried in a Savant speed vac concentrator, reconstituted to original volume with ice cold RIA or ELISA buffer, and stored at -70° C. until assayed. The assay for eicosanoids (LTB4, T×B2, and PGE2) is performed as described by the manufacturer of the [^3 H]-RIA kit or ELISA kit (LTB4 -Amersham, TxB2 and PGE2 - Caymen Chemical).
The total eicosanoid level in 2 ml of blood is calculated and reported as ng/10^6 neutrophils. […] Drug effects are expressed as percent change from control values.
Compounds tested in vitro are solubilized in dimethylsulfoxide and diluted 1:10 in 10% bovine serum albumin in phosphate buffer saline resulting in a final dimethylsulfoxide concentration of 0.1% i n the blood.

inhibition [1] [%]	Compound	% Inhibition of LTB4 ([2]; 25 μM) [%]	further results
42	Cc1c(CC(=O)O)c2cc(OCc3csc(-c4ccccc4)n3)ccc2n1Cc1ccccc1 [Example 40, 1-[(Phenyl)methyl]-2-methyl-5-[(2-phenyl-4-thiazolyl)methoxy]-1H-indole-3-acetic acid]		
	Cc1c(CC(=O)N(C)O)c2cc(OCc3csc(-c4ccccc4)n3)ccc2n1Cc1ccccc1 [Example 57, N-hydroxy-5-[(2-phenyl-4-thiazolyl)methoxy]-1-(phenylmethyl)-N,2-dimethyl-1H-indole-3-acetamide]		IC50 [2]: 43.3 µM
49	Cc1c(CC(=O)O)c2cc(OCc3csc(-c4ccccc4)n3)ccc2n1Cc1ccc2ccccc2c1 [Example 67, 5-[(2-Phenyl-4-thiazolyl)methoxy]-1-(2-nanhthalenylmethyl)-2-methyl-1H-indole-3-acetic acid]	30	
46	Cc1c(CC(=O)O)c2cc(OCc3ccccn3)ccc2n1Cc1ccc(Cl)cc1 [Example 36, 1-[(4-Chlorophenyl)methyl]-2-methyl-5-(2-pyridinylmethoxy)-1H-indole-3-acetic acid]		
	CC(C)c1ccc2c(c1)c(SC(C)(C)C)c(CC(C)(C)C(=O)O)n2Cc1ccc(Cl)cc1 [L-663,536, reference compound]		% Inhibition of LTB4 ([2]; 3 μM): 96%
	CC(c1cc2ccccc2s1)N(O)C(N)=O (stereo not drawn) [Example A-64077, reference compound]	72	IC50 [2]: 3 µM
	Cc1c(CNC(=O)NO)c2cc(OCc3ccc4ccccc4n3)ccc2n1Cc1ccc(Cl)cc1 [Example 42, N-[[1-[(4-Chlorophenyl)methyl]-2-methyl-5-(2-quinolinylmethoxy)-1H-indol-3-yl]methyl]-N'-hydroxyurea]	89	IC50 [2]: 5.6 µM
46	Cc1c(CC(=O)O)c2cc(OCc3csc(-c4ccc(C(F)(F)F)cc4)n3)ccc2n1Cc1ccc(Cl)cc1 [Example 39, 1-[(4-Chlorophenyl)methyl]-2-methyl-5-[[2-(4-trifluoromethylphenyl)-4-thiazolyl]methoxy]-1H-indole-3-acetic acid]		
	1-[(4-Chlorophenyl)methyl]-5-(2-quinolinylmethoxy)-1H-indole-3-acetic acid [Example 32]		% Inhibition, HSF (human synovial fluid) [1]: 36%
1	CCOC(=O)Cc1c(C)n(Cc2ccc(SC)cc2)c2ccc(OCc3nc4ccccc4s3)cc12 [Example 53, 5-(2-Benzothiazolylmethoxy)-1-[[4-(methylthio)phenyl]methyl]-2-methyl-1H-indole-3-acetic acid ethyl ester]	80	
31	Cc1c(CC(=O)O)c2cc(OCc3csc(-c4ccccc4)n3)ccc2n1Cc1ccc(Cl)cc1 [Example 38, 1-[(4-Chlorophenyl)methyl]-2-methyl-5-[(2-phenyl-4-thiazolyl)methoxy]-1H-indole-3-acetic acid]		
38	O=C(O)Cc1cn(Cc2ccc(Cl)cc2)c2ccc(OCc3ccc4ccccc4n3)cc12 [Example 33, 1-[(4-Chlorophenyl)methyl]-5-(2-quinolinylmethoxy)-1H-indole-3-acetic acid]		
6	CCOC(=O)Cc1c(C)n(Cc2cccc(OC)c2)c2ccc(OCc3csc(-c4ccccc4)n3)cc12 [Example 59, 5-[(2-Phenyl-4-thiazolyl)methoxy]-1-[[(3-methoxy)phenyl]methyl]-2-methyl-1H-indole-3-acetic acid ethyl ester]		
28	Cc1c(CC(=O)O)c2cc(OCc3ccccc3)ccc2n1Cc1ccc(Cl)cc1 [Example 35, 1-[(4-Chlorophenyl)methyl]-2-methyl-5-(phenylmethoxy)-1H-indole-3-acetic acid]		IC50 [1]: 52.9 µM
	Cc1c(CC(=O)O)c2cc(OCc3ccc4ccccc4c3)ccc2n1Cc1ccc(Cl)cc1 [Example 34, 1-[(4-Chlorophenyl)methyl]-2-methyl-5-(2-naphthalenylmethoxy)-1H-indole-3-acetic acid]		IC50 [1]: 33.7 µM
45	Cc1c(CC(=O)O)c2cc(OCc3ccc4ccccc4n3)ccc2n1Cc1ccc(C(=O)O)cc1 [Example 27, 1-[(4-Carboxyphenyl)methyl]-2-methyl-5-(2-quinolinylmethoxy)-1H-indole-3-acetic acid]		
43	CSc1ccc(Cn2c(C)c(CC(=O)O)c3cc(OCc4csc(-c5ccccc5)n4)ccc32)cc1 [Example 58, 5-[(2-Phenyl-4-thiazolyl)methoxy]-1-[[(4-methylthio)phenyl]methyl]-2-methyl-1H -indole-3-acetic acid]		
	CC1=C(CC(=O)N(C)O)c2cc(F)ccc2C1=Cc1ccc(OCc2ccc3ccccc3n2)cc1 [Example 44, 5-Fluoro-N-hydroxy-N,2-dimethyl-1-[[4-(2-quinolinylmethoxy)penyl]methylene]-1H -indene-3-acetamide hydrochloride]	94	IC50 [2]: 4.5 µM
64	Cc1c(CC(=O)NS(=O)(=O)c2ccccc2)c2cc(OCc3ccc4ccccc4n3)ccc2n1Cc1ccc(Cl)cc1 [Example 23]		
41	Cc1c(CC(=O)O)c2cc(OCc3ccc4ccccc4n3)ccc2n1Cc1ccc(OCc2ccc3ccccc3n2)cc1 [Example 28, 2-Methyl-5-(2-quinolinylmethoxy)-1-[[4-(2-quinolinylmethoxy)phenyl]methyl]-1H-indole-3-acetic acid hemihydrate]		
39	Cc1c(CC(=O)O)c2cc(OCc3nc4ccccc4s3)ccc2n1Cc1ccc(Cl)cc1 [Example 37, 1-[(4-Chlorophenyl)methyl]-2-methyl-5-(2-benzothiazolylmethoxy)-1H-indole-3-acetic acid]		
	Cc1c(CC(=O)N(C)O)c2cc(OCc3ccc4ccccc4n3)ccc2n1Cc1ccc(Cl)cc1 [Example 22, 1-[(4-Chlorophenyl)methyl]-2-methyl-N-(methyl)-N-(hydroxy)-5-(2-quinolinylmethoxy)-1H,indole-3-acetamide three quarters hydrate]	78	IC50 [2]: 39.8 µM
	CCOC(=O)Cc1c(C)n(Cc2ccc(C(C)(C)C)cc2)c2ccc(OCc3csc(-c4ccccc4)n3)cc12 [Example 61, 5-[(2-Phenyl-4-thiazolyl)methoxy]-1-[[4-(1,1-dimethylethyl)phenyl]methyl]-2-methyl-1H-indole-3-acetic acid ethyl ester]	5	
